Assays:
[1] = poor and variable, intestinal absorption; background statement; cited from earlier work
[2] = In-vivo pharmacokinetic evaluation, single dose; design: species or system New Zealand White rabbits; conditions: New Zealand White, whole blood
Experimental: The study was performed in New Zealand White rabbits as per the CPCSEA guidance. Overnight fasted animals were anaesthetised with Ketamine (30-40 mg/kg) and Xylazine (10 mg/kg) and 1 mg BAPTac patch was administered on the buccal surface of the oral cavity. The control group was administered 1 mg tacrolimus in PBS and 30% Ethanol. 0.5-0.75 ml of blood was taken from each rabbit via the marginal ear vein using 23 gauge needles through a butterfly cannula. The blood samples were collected before initiation of the treatment and after the administration of oral Tacrolimus or Tacrolimus-SLN-loaded buccal patch at time intervals of 15 min, 30 min, 1 h, 1.5 h, 2 h, 4 h, 6 h, 8 h, 12 h and 24 hours for the single dose PK study. Blood samples were collected in EDTA tubes, aliquoted and stored in amber-coloured tubes at −80° C. until quantification by LC-MS/MS.

- concentration at 0.25 h ([2]; 1 mg, heading: Average Tac conc., rabbit blood, 0.25 (15 mins) after single 1 mg dose (oral or buccal patch), LC-MS/MS): 3.6 ng/mL
- concentration at 0.5 h ([2]; 1 mg, heading: Average Tac conc., rabbit blood, 0.5 (30 mins) after single 1 mg dose (oral or buccal patch)): 12.3 ng/mL
- concentration at 1 h ([2]; 1 mg, heading: Average Tac conc., rabbit blood, 1.0 (60 mins) after single 1 mg dose (oral or buccal patch)): 17.2 ng/mL
- concentration at 1.5 h ([2]; 1 mg, heading: Average Tac conc., rabbit blood, 1.5 (90 mins) after single 1 mg dose (oral or buccal patch)): 46.9 ng/mL
- concentration at 2 h ([2]; 1 mg, heading: Average Tac conc., rabbit blood, 2.0 (120 mins) after single 1 mg dose (oral or buccal patch)): 31.3 ng/mL
- concentration at 4 h ([2]; 1 mg, heading: Average Tac conc., rabbit blood, 4.0 (240 mins) after single 1 mg dose (oral or buccal patch)): 14.5 ng/mL
- concentration at 6 h ([2]; 1 mg, heading: Average Tac conc., rabbit blood, 6.0 (480 mins) after single 1 mg dose (oral or buccal patch)): 12.3 ng/mL
- concentration at 8 h ([2]; 1 mg, heading: Average Tac conc., rabbit blood, 8.0 (640 mins) after single 1 mg dose (oral or buccal patch)): 11.8 ng/mL
- concentration at 12 h ([2]; 1 mg, heading: Average Tac conc., rabbit blood, 12.0 (720 mins) after single 1 mg dose (oral or buccal patch)): 7.9 ng/mL
- concentration at 24 h ([2]; 1 mg, heading: Average Tac conc., rabbit blood, 24.0 (1440 mins) after single 1 mg dose (oral or buccal patch)): 2.4 ng/mL
- half-life ([2]; rabbit, single 1 mg dose (oral or buccal patch), read-out: Elimination t1/2 (converted)): 2.73 ± 2.9 h
- AUC(0-t) ([2]; rabbit, single 1 mg dose (oral or buccal patch), read-out: Mean AUC0-24): 250 ± 78.2 ng·h/mL
SMILES: C=CC[C@@H]1/C=C(\C)C[C@H](C)C[C@H](OC)[C@H]2O[C@@](O)(C(=O)C(=O)N3CCCC[C@H]3C(=O)O[C@H](/C(C)=C/[C@@H]3CC[C@@H](O)[C@H](OC)C3)[C@H](C)[C@@H](O)CC1=O)[C@H](C)C[C@@H]2OC (relative stereo) [Tacrolimus, [3S[3R*[E(1S*,3S*,4S*)],4S*,5R*,8S*,9E,12R*,14R*,15S*,16R*,18S*,19S*, 26aR*]]5,6,8,11,12,13,14,15,16,17,18,19,24,25,26,26a-hexadecahydro-5,19-dihydroxy-3-[2-(4-hydroxy-3-methoxycyclohexyl)-1-methylethenyl]-14,16-dimethoxy-4,10,12,18-tetramethyl-8-(2-propenyl)-15,19-epoxy-3H-pyrido[2,1-c][1,4]oxaazacyclotricosine-1,7,20,21(4H,23H)-tetrone, monohydrate]
- bioavailability (average) [1]: 25%
